Assay results: patent publication US20210337789A1, “Derivatives of m-Guaiacol, Their Preparation and Their Uses” (Universite de Caen Normandie, priority 2018, published 2021)

Tests used:
[1] = tested on: Micrococcus luteus reference strain; assay: Bacterial growth (optical density at 600 nm) on Micrococcus luteus reference strain; format: cell-based; design: key: 0 = no effect, 1 = pure only, 2 = several concentrations, 3 = strong at all; details: in DMSO diluted in PBS, compared with triclosan
Protocol: (§1) The bacterial growth is evaluated by measuring the optical density (DO) at 600 nm using NanoDrop.
(§2) This ratio permits a classification of the molecules in 4 effect levels: • 0=no effect observed; • 1=effect observed only when the molecule is tested pure; • 2=effect observed at several concentrations, but which gradually decreases the dilutions; • 3=strong effect observed at each concentration of molecule tested.
The molecules are put in a solution in DMSO and diluted in PBS.

[2] = tested on: Streptococcus equi subsp zooepidemicus; assay: Bacterial growth screening on wild-type phenotype strain, S. zooepidemicus; format: cell-based
Protocol: as §1, §2
(§3) A screening of molecules of the invention on several wild-type phenotype strains has been carried out.
(§4) The strains initially selected are: • Gram+: Streptococcus equi subsp zooepidemicus and Staphylococcus aureus • Gram−: Escherichia coli, Klebsiella pneumoniae and Stenotrophomonas maltophila.

Staphylococcus aureus = assay: Bacterial growth screening on wild-type phenotype strain, S. aureus; format: cell-based
Protocol: as §1, §2, §3, §4

Escherichia coli = assay: Bacterial growth screening on wild-type phenotype strain, E. coli; format: cell-based
Protocol: as §1, §2, §3, §4

Klebsiella pneumoniae = assay: Bacterial growth screening on wild-type phenotype strain, K. pneumoniae; format: cell-based
Protocol: as §1, §2, §3, §4

[3] = tested on: Stenotrophomonas maltophila; assay: Bacterial growth screening on wild-type phenotype strain, S. maltophila; format: cell-based
Protocol: as §1, §2, §3, §4

[4] = tested on: E. coli strains presenting high levels of resistance; assay: Bacterial growth on E. coli strains presenting high levels of resistance; format: cell-based, Escherichia coli; design: key to Effects (0 < 1 < 2 < 3): 0 = no effect; 1 = pure only; 2 = several concs; 3 = strong at each; key to Δ DO: change in optical density measured at 600 nm; details: for Effects (0 < 1 < 2 < 3): molecules at 1, 0.5 and 0.1 mg/ml, triclosan at 0.1 mg/ml
Protocol: as §1, §2
(§5) Compounds of the invention were tested on 4 strains of E. coli, 3 strains of K. pneumoniae and 4 strains of S. aureus with the resistance profiles below.

[5] = tested on: K. pneumoniae strains presenting high levels of resistance; assay: Bacterial growth on K. pneumoniae strains presenting high levels of resistance; format: cell-based, Klebsiella pneumoniae; design: key to Effects (0 < 1 < 2 < 3): 0 = no effect; 1 = pure only; 2 = several concs; 3 = strong at each; key to Δ DO: change in optical density measured at 600 nm; details: for Effects (0 < 1 < 2 < 3): molecules at 1, 0.5 and 0.1 mg/ml, triclosan at 0.1 mg/ml
Protocol: as §1, §2, §5

[6] = tested on: S. aureus strains presenting high levels of resistance; assay: Bacterial growth on S. aureus strains presenting high levels of resistance; format: cell-based, Staphylococcus aureus; design: key to Effects (0 < 1 < 2 < 3): 0 = no effect; 1 = pure only; 2 = several concs; 3 = strong at each; key to Δ DO: change in optical density measured at 600 nm; details: for Effects (0 < 1 < 2 < 3): molecules at 1, 0.5 and 0.1 mg/ml, triclosan at 0.1 mg/ml
Protocol: as §1, §2, §5

[7] = tested on: KB cells (epidermoid carcinoma); assay: In vitro cytotoxicity, cell proliferation test (MTS) on KB cells; format: cell-based; details: Homo sapiens, KB cells, triplicate, 72 hours of exposure, with respect to DMSO control, read-out: percentage of inhibition of cell growth
Protocol: The human cell strain KB (epidermoid carcinoma) was obtained from the NCI (National Cancer Institute) and cultivated in the D-MEM medium added with 10% of foetal bovine serum (Invitrogen) in the presence of penicillin, streptomycin and fungizone in flasks of […] under CO2 at 5%. The cells were deposited on tissue culture microplates with 96 wells and a density of 650 cells/well in 200 μl of medium and treated 24 hours later with compounds of the invention dissolved in DMSO at concentrations going from 0.5 nM to 10 μM using a Biomek 3000 (Beckman-Coulter) automaton. The controls received the same volume of DMSO (1% of final volume). After 72 hours of exposure, the MTS reagent (Celltiter 96Aqueous One solution, Promega) was added and incubated for 3 hours at 37° C.: the absorbance was measured at 490 nm and the results of inhibition of the cell proliferation were calculated according to the ratio [(1−(OD490treated/OD490control))×100].
Results: Cytotoxicity at 10^−5 and 10^−6M on Triplicate KB Cells, Measured after 72 Hours of Exposure.
The percentage of inhibition of cell growth with respect to the cells receiving the same quantity of DMSO is outlined in the table below.

For COc1cc(O)c(Cl)c(Br)c1Cl [sr7616], the Effect level [1] was 3, the “Effect level, S. zooepidemicus” value [2] was 3 and the “Effect level, S. aureus” value (Staphylococcus aureus) was 2. For the same compound, the “Effect level, E. coli” value (Escherichia coli) was 3, the “Effect level, K. pneumoniae” value (Klebsiella pneumoniae) was 3 and the “Effect level, S. maltophila” value [3] was 2. For the same compound, the “Δ DO” value ([4]; E. coli Strain 1, 0.1 mg/ml) was 0.089, the “Δ DO” value ([4]; E. coli Strain 1, 0.5 mg/ml) was 0.640 and the “Δ DO” value ([4]; E. coli Strain 1, 1 mg/ml) was 0.857. The “Effects (0 < 1 < 2 < 3)” value ([4]; E. coli Strain 1) was 2, the “Δ DO” value ([4]; E. coli Strain 2, 0.1 mg/ml) was 0.331 and the “Δ DO” value ([4]; E. coli Strain 2, 0.5 mg/ml) was 0.854. The “Δ DO” value ([4]; E. coli Strain 2, 1 mg/ml) was 1.069, the “Effects (0 < 1 < 2 < 3)” value ([4]; E. coli Strain 2) was 3 and the “Δ DO” value ([4]; E. coli Strain 3, 0.1 mg/ml) was 0.141. The “Δ DO” value ([4]; E. coli Strain 3, 0.5 mg/ml) was 0.679, the “Δ DO” value ([4]; E. coli Strain 3, 1 mg/ml) was 0.825 and the “Effects (0 < 1 < 2 < 3)” value ([4]; E. coli Strain 3) was 3. For the same compound, the “Δ DO” value ([4]; E. coli Strain 4, 0.1 mg/ml) was 0.308, the “Δ DO” value ([4]; E. coli Strain 4, 0.5 mg/ml) was 0.868 and the “Δ DO” value ([4]; E. coli Strain 4, 1 mg/ml) was 0.853. For the same compound, the “Effects (0 < 1 < 2 < 3)” value ([4]; E. coli Strain 4) was 3, the “Δ DO” value ([5]; K. pneumoniae Strain 1, 0.1 mg/ml) was 0.236 and the “Δ DO” value ([5]; K. pneumoniae Strain 1, 0.5 mg/ml) was 0.594. For the same compound, the “Δ DO” value ([5]; K. pneumoniae Strain 1, 1 mg/ml) was 0.646, the “Effects (0 < 1 < 2 < 3)” value ([5]; K. pneumoniae Strain 1) was 3 and the “Δ DO” value ([5]; K. pneumoniae Strain 2, 0.1 mg/ml) was 0.151. The “Δ DO” value ([5]; K. pneumoniae Strain 2, 0.5 mg/ml) was 0.641, the “Δ DO” value ([5]; K. pneumoniae Strain 2, 1 mg/ml) was 0.686 and the “Effects (0 < 1 < 2 < 3)” value ([5]; K. pneumoniae Strain 2) was 2. For the same compound, the “Δ DO” value ([5]; K. pneumoniae Strain 3, 0.1 mg/ml) was 0.213, the “Δ DO” value ([5]; K. pneumoniae Strain 3, 0.5 mg/ml) was 0.652 and the “Δ DO” value ([5]; K. pneumoniae Strain 3, 1 mg/ml) was 0.847. The “Effects (0 < 1 < 2 < 3)” value ([5]; K. pneumoniae Strain 3) was 2, the “Δ DO” value ([6]; S. aureus Strain 1, 0.1 mg/ml) was 0.276 and the “Δ DO” value ([6]; S. aureus Strain 1, 0.5 mg/ml) was 0.443. For the same compound, the “Δ DO” value ([6]; S. aureus Strain 1, 1 mg/ml) was 0.445, the “Effects (0 < 1 < 2 < 3)” value ([6]; S. aureus Strain 1) was 3 and the “Δ DO” value ([6]; S. aureus Strain 2, 0.1 mg/ml) was 0.303. The “Δ DO” value ([6]; S. aureus Strain 2, 0.5 mg/ml) was 0.458, the “Δ DO” value ([6]; S. aureus Strain 2, 1 mg/ml) was 0.459 and the “Effects (0 < 1 < 2 < 3)” value ([6]; S. aureus Strain 2) was 3. For the same compound, the “Δ DO” value ([6]; S. aureus Strain 3, 0.1 mg/ml) was 0.299, the “Δ DO” value ([6]; S. aureus Strain 3, 0.5 mg/ml) was 0.529 and the “Δ DO” value ([6]; S. aureus Strain 3, 1 mg/ml) was 0.525. The “Effects (0 < 1 < 2 < 3)” value ([6]; S. aureus Strain 3) was 3, the “Δ DO” value ([6]; S. aureus Strain 4, 0.1 mg/ml) was 0.291 and the “Δ DO” value ([6]; S. aureus Strain 4, 0.5 mg/ml) was 0.491. The “Δ DO” value ([6]; S. aureus Strain 4, 1 mg/ml) was 0.491, the “Effects (0 < 1 < 2 < 3)” value ([6]; S. aureus Strain 4) was 3 and the inhibition at 10 µM ([7]; 10^−5 M) was 0%. The inhibition at 1 µM ([7]; 10^−6 M) was 0%.
